Consider 1 substance from patent US8754057B2, “Inhibition of apoptosis-specific eIF-5A(eIF-5A1″) with antisense oligonucleotides and siRNA as anti-inflammatory therapeutics” (Senesco Technologies, Inc., priority 2003, dated 2014).

Data set [1] relates to lamina cribrosa cell line #506. The data set is described as follows: Hoescht staining apoptosis of siRNA-transfected lamina cribrosa cells treated with TNF-α and camptothecin. It counts as cell-based, human. To be noted: LC #506, 72 h after siRNA transfection, 24 h 10 ng/ml TNF-α plus 50 μM camptothecin. On the procedure:
Lamina cribrosa cell line #506 cells were seeded at 7500 cells per well onto an 8-well culture slide. Three days later the LC cells were transfected with either GAPDH siRNA, apoptosis-specific eIF-5A siRNAs #1-4 (SEQ ID NO:30-33), or control siRNA #5 (SEQ ID NO:34). 72 hours after transfection, the transfected cells were treated with 10 ng/ml TNF-α plus 50 μM camptothecin. Twenty-four hours later the cells were stained with Hoescht 33258 and viewed by fluorescence microscopy using a UV filter. Cells with brightly stained condensed or fragmented nuclei were counted as apoptotic. This graph represents the average of n=4 independent experiments.
Following transfection, RKO and lamina cribrosa cells were incubated for 72 hours prior to collection of cellular extract for Western blot analysis. In order to determine the effectiveness of the siRNAs directed against apoptosis-specific eIF-5A to block apoptosis, lamina cribrosa cells were treated with 50 μM of camptothecin (Sigma) and 10 ng/ml of TNF-α (Leinco Technologies) to induce apoptosis either 48 or 72 hours after transfection. The cells were stained with Hoescht either 24 or 48 hours later in order to determine the percentage of cells undergoing apoptosis.
Small inhibitory RNAs (siRNAs) directed against human apoptosis-specific eIF-5A were used to specifically suppress expression of eIF5A in lamina cribrosa cells. Six siRNAs were generated by in vitro transcription using the Silencer™ siRNA Construction Kit (Ambion Inc.), Four siRNAs were generated against human apoptosis-specific eIF-5A (siRNAs #1 to #4). […] The siRNAs were generated according to the manufacturer's protocol. The eIF5A and control siRNA targets had the following sequences: siRNA #1 5′ […] 3′ (SEQ ID NO: 81); siRNA #2 5′ […] 3′ (SEQ ID NO: 82); siRNA #3 5′ […] 3′ (SEQ ID NO: 83); siRNA #4 5′ […] 3′ (SEQ ID NO: 84); siRNA #5′ […] 3′ (SEQ ID NO: 85). Lamina cribrosa cells were transfected with siRNA using LipofectAMINE 2000.
Lamina cribrosa cells were transfected when cell confluence was at 40 to 70% and were generally seeded onto 8-well culture slides at 7500 cells per well three days prior to transfection. Transfection medium sufficient for one well of an 8-well culture slide was prepared by diluting 25.5 proles of siRNA to a final volume of 21.2 μl in Opti-Mem (Sigma). 0.425 μl of Lipofectamine 2000 was diluted to a final volume of 21.2 μl in Opti-Mem and incubated for 7 to 10 minutes at room temperature. The diluted Lipofectamine 2000 mixture was then added to the diluted siRNA mixture and incubated together at room temperature for 20 to 30 minutes, The cells were washed once with serum-free media before adding 135 μl of serum-free media to the cells and overlaying 42.4 μl of transfection medium. […]

The test system of data set [2] is lamina cribrosa cell line #517. Described as above. It counts as cell-based, human. To be noted: 72 h after siRNA transfection, 24 h TNF-α plus camptothecin. How it is done:
Lamina cribrosa cell line #517 cells were seeded at 7500 cells per well onto an 8-well culture slide. Three days later the LC cells were transfected with either apoptosis-specific eIF-5A siRNA #1 (SEQ ID NO:30) or control siRNA #5 (SEQ ID NO:34). 72 hours after transfection, the transfected cells were treated with 10 ng/ml TNF-α plus 50 μM camptothecin. Twenty-four hours later the cells were stained with Hoescht 33258 and viewed by fluorescence microscopy using a UV filter. Cells with brightly stained condensed or fragmented nuclei were counted as apoptotic. The results of two independent experiments are represented here.
Small inhibitory RNAs (siRNAs) directed against human apoptosis-specific eIF-5A were used to specifically suppress expression of eIF5A in lamina cribrosa cells. Six siRNAs were generated by in vitro transcription using the Silencer™ siRNA Construction Kit (Ambion Inc.), Four siRNAs were generated against human apoptosis-specific eIF-5A (siRNAs #1 to #4). […] The siRNAs were generated according to the manufacturer's protocol. […]
Transfected cells that had been treated with TNF-α and camptothecin for 24 hours were stained with Hoescht 33258 in order to determine the percentage of cells undergoing apoptosis. […] Cells with brightly stained or fragmented nuclei were scored as apoptotic. A minimum of 200 cells were counted per well. […]

As to “siRNA #1: siRNA against human apoptosis-specific eIF-5A (SEQ ID NO:30); target 5′ AAAGGAATGACTTCCAGCTGA 3′ (SEQ ID NO: 81) (AAAGGAAUGACUUCCAGCUGATT; RNA, all phosphodiester, T or U not given here; listed as Homo sapiens)”, in data set [1], the “reduce apoptosis of LC cells” value was determined as 59%. For the same substance, the “reduce apoptosis of the LC line #517” value in data set [2] stood at 53%.
